Measured values as given in patent US10017712B2, “Method for producing vitamin E-enriched, especially tocotrienol-enriched, compositions from natural oils” (Evonik Degussa GmbH, priority 2014, dated 2018).

What was measured:
[1] = Partition coefficients of individual tocopherols and tocotrienols, palm oil with ethanol or methanol; format: physicochemical
Method: Table 3 provides values of the individual partition coefficient values of tocopherol and tocotrienol compounds found in palm oil. The values were measured by contacting palm oil and ethanol (denoted PC Eth in Table 3) and palm oil and methanol (denoted PC Meth in Table 3) at the oil to solvent ratios noted in the table—e.g. PC Eth 1:5 means that one volume of palm oil was contacted with 5 volumes of ethanol.

[2] = Single stage methanol extraction of vegetable oils, partition coefficient; format: physicochemical
Method: First methanol was tested for its efficiency in extracting of α-tocopherol and FFA from three vegetable oils. 200-300 ml of oil was mixed with the solvent using a magnetic stirrer at 35° C. The mixture is gravity separated and the oil stayed at the bottom. Partition coefficients of α-tocopherol and FFA were obtained by measuring the concentration of both compounds in the extract and the bottom fraction without evaporation of the solvent. The partition coefficient is calculated as follows: PC=(concentration in the extract)/(concentration in the bottom fraction).

[3] = PC Meth 1:1 (palm oil:methanol)
[4] = PC Meth 1:2 (palm oil:methanol)
[5] = PC Meth 1:5 (palm oil:methanol)
[6] = PC Meth 1:7 (palm oil:methanol)
[7] = PC Meth 1:3 (palm oil:methanol)

| Partition coefficient ([1]; PC Eth 1:1 (palm oil:ethanol)) | Partition coefficient ([1]; PC Eth 1:2 (palm oil:ethanol)) | Partition coefficient ([1]; PC Eth 1:5 (palm oil:ethanol)) | Partition coefficient ([1]; PC Eth 1:7 (palm oil:ethanol)) | Partition coefficient [1, 3] | Partition coefficient [1, 4] | Partition coefficient [1, 5] | Partition coefficient [1, 6] | Partition coefficient ([2]; Palm Oil, Solvent:Oil Ratio 2:1, 35° C.) | Partition coefficient ([2]; Rapeseed Oil, Solvent:Oil Ratio 3:1, 35° C.) | Partition coefficient ([2]; Rice Bran Oil, Solvent:Oil Ratio 2:1, 35° C.) | SMILES | Partition coefficient ([1]; PC Eth 1:3 (palm oil:ethanol)) | Partition coefficient [1, 7] |
| --- | --- | --- | --- | --- | --- | --- | --- | --- | --- | --- | --- | --- | --- |
| 0.50 | 0.47 | 0.53 | 0.29 | 0.25 | 0.07 | 0.09 | 0.01 |  |  |  | Cc1cc(O)cc2c1O[C@](C)(CCC[C@H](C)CCC[C@H](C)CCCC(C)C)CC2 [Delta-tocopherol] |  |  |
| 0.30 | 0.31 | 0.42 | 0.22 | 0.21 | 0.15 | 0.11 | 0.09 | 0.15 | 0.39 | 0.20 | Cc1c(C)c2c(c(C)c1O)CC[C@@](C)(CCC[C@H](C)CCC[C@H](C)CCCC(C)C)O2 [α-tocopherol] | 0.25 | 0.21 |

| SMILES | Partition coefficient ([1]; PC Eth 1:1 (palm oil:ethanol)) | Partition coefficient ([1]; PC Eth 1:2 (palm oil:ethanol)) | Partition coefficient ([1]; PC Eth 1:5 (palm oil:ethanol)) | Partition coefficient ([1]; PC Eth 1:7 (palm oil:ethanol)) | Partition coefficient [1, 3] | Partition coefficient [1, 4] | Partition coefficient [1, 5] | Partition coefficient [1, 6] | Partition coefficient ([2]; Palm Oil, Solvent:Oil Ratio 2:1, 35° C.) | Partition coefficient ([2]; Rapeseed Oil, Solvent:Oil Ratio 3:1, 35° C.) | Partition coefficient ([2]; Rice Bran Oil, Solvent:Oil Ratio 2:1, 35° C.) | Partition coefficient ([1]; PC Eth 1:3 (palm oil:ethanol)) | Partition coefficient [1, 7] |
| --- | --- | --- | --- | --- | --- | --- | --- | --- | --- | --- | --- | --- | --- |
| CC(C)=CCC/C(C)=C/CC/C(C)=C/CC[C@]1(C)CCc2cc(O)c(C)c(C)c2O1 [Gamma-tocotrienol] | 0.72 | 0.81 | 0.79 | 0.53 | 1.17 | 0.64 | 0.46 | 0.36 |  |  |  | 0.85 | 0.76 |
